Measured values: PubChem BioAssay AID248 (DTP/NCI, 2004)
Several values for one entry are separate records, joined by “and”; a condition that tells them apart may be missing. Identical values can stand only once. Inconclusive results and toxic doses are left out.

System: L1210 leukemia ip in BDF1 mice, survival T/C
Test: NCI In Vivo Anticancer Drug Screen. Data for tumor model L1210 Leukemia (intraperitoneal) in B6D2F1 (BDF1) mice
Details: endpoint: mean survival time, higher = longer survival
Outline: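 Value reflects the ratio of survival in compound-treated mice to survival in vehicle-treated controls, with both groups carrying the same transplanted tumor.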

[1] = dose: 50.0 mg/kg/injection, schedule: Q01DX009 (ip), vehicle: saline
[2] = dose: 100.0 mg/kg/injection, schedule: Q01DX009 (ip), vehicle: saline
[3] = dose: 200.0 mg/kg/injection, schedule: Q01DX009 (ip), vehicle: saline
[4] = dose: 400.0 mg/kg/injection, schedule: Q01DX001 (ip), vehicle: saline

In the case of `CCNC1=C(N2CC2)C(=O)C(NCC)=C(N2CC2)C1=O`, the T/C (dose: 0.04 mg/kg/injection, schedule: Q01DX009 (ip), vehicle: saline) is reported as 95 % of control and 102 % of control, the T/C (dose: 0.09 mg/kg/injection, schedule: Q01DX009 (ip), vehicle: saline) is reported as 102 % of control and 111 % of control and the T/C (dose: 0.09 mg/kg/injection, schedule: Q04DX003 (ip), vehicle: saline) is reported as 100 % of control and 122 % of control. The T/C (dose: 0.18 mg/kg/injection, schedule: Q01DX009 (ip), vehicle: saline) was 108 % of control and 120 % of control, the T/C (dose: 0.18 mg/kg/injection, schedule: Q04DX003 (ip), vehicle: saline) was 104 % of control and 113 % of control and the T/C (dose: 0.37 mg/kg/injection, schedule: Q01DX009 (ip), vehicle: saline) was 168 % of control. The T/C (dose: 0.37 mg/kg/injection, schedule: Q04DX003 (ip), vehicle: saline) was 113 % of control and 114 % of control, the T/C (dose: 0.75 mg/kg/injection, schedule: Q01DX001 (ip), vehicle: saline) was 120 % of control and the T/C (dose: 0.75 mg/kg/injection, schedule: Q01DX009 (ip), vehicle: saline) was 151 % of control. The T/C (dose: 0.75 mg/kg/injection, schedule: Q04DX003 (ip), vehicle: saline) was 120 % of control and 124 % of control, the T/C (dose: 1.5 mg/kg/injection, schedule: Q01DX001 (ip), vehicle: saline) was 168 % of control and the T/C (dose: 1.5 mg/kg/injection, schedule: Q01DX009 (ip), vehicle: saline) was 191 % of control and 212 % of control. The T/C (dose: 1.5 mg/kg/injection, schedule: Q04DX003 (ip), vehicle: saline) was 157 % of control, the T/C (dose: 3.0 mg/kg/injection, schedule: Q01DX001 (ip), vehicle: saline) was 157 % of control and the T/C (dose: 3.0 mg/kg/injection, schedule: Q01DX009 (ip), vehicle: saline) was 93 % of control and 117 % of control. For the same compound, the T/C (dose: 3.0 mg/kg/injection, schedule: Q04DX003 (ip), vehicle: saline) was 175 % of control, the T/C (dose: 3.12 mg/kg/injection, schedule: Q04DX003 (ip), vehicle: saline) was 150 % of control and the T/C (dose: 6.0 mg/kg/injection, schedule: Q04DX003 (ip), vehicle: saline) was 101 % of control. The T/C (dose: 6.25 mg/kg/injection, schedule: Q04DX003 (ip), vehicle: saline) was 95 % of control.

In the case of `C[N+](C)(C)CCCS(=O)(=O)[O-]`, the T/C (dose: 50.0 mg/kg/injection, schedule: Q01DX001 (sc), vehicle: saline) is reported as 98 % of control, the T/C (dose: 100.0 mg/kg/injection, schedule: Q01DX001 (sc), vehicle: saline) is reported as 98 % of control and the T/C (dose: 100.0 mg/kg/injection, schedule: Q04DX002 (ip), vehicle: saline) is reported as 100 % of control. For the same compound, the T/C (dose: 200.0 mg/kg/injection, schedule: Q01DX001 (sc), vehicle: saline) was 109 % of control, the T/C (dose: 200.0 mg/kg/injection, schedule: Q04DX002 (ip), vehicle: saline) was 111 % of control and the T/C (dose: 400.0 mg/kg/injection, schedule: Q01DX001 (sc), vehicle: saline) was 98 % of control. The T/C (dose: 400.0 mg/kg/injection, schedule: Q04DX002 (ip), vehicle: saline) was 95 % of control.

For `CC[N-]c1nncs1.CC[N-]c1nncs1.CC[N-]c1nncs1.CC[N-]c1nncs1.[Cl][Rh][Cl]`, the T/C (dose: 3.13 mg/kg/injection, schedule: Q04DX003 (ip), vehicle: distilled water + Tween-80) was 101 % of control, the T/C (dose: 6.25 mg/kg/injection, schedule: Q04DX003 (ip), vehicle: distilled water + Tween-80) was 104 % of control and the T/C (dose: 12.5 mg/kg/injection, schedule: Q04DX003 (ip), vehicle: distilled water + Tween-80) was 98 % of control. For the same compound, the T/C (dose: 25.0 mg/kg/injection, schedule: Q04DX003 (ip), vehicle: distilled water + Tween-80) was 92 % of control, the T/C (dose: 50.0 mg/kg/injection, schedule: Q04DX003 (ip), vehicle: distilled water + Tween-80) was 93 % of control and the T/C (dose: 100.0 mg/kg/injection, schedule: Q04DX003 (ip), vehicle: distilled water + Tween-80) was 104 % of control.

With `Clc1ccc(N=Cc2ccc3c(c2)OCO3)cc1` the T/C (dose: 100.0 mg/kg/injection, schedule: Q01DX009 (ip), vehicle: other) was 93 % of control, the T/C (dose: 200.0 mg/kg/injection, schedule: Q01DX009 (ip), vehicle: other) was 98 % of control and the T/C (dose: 400.0 mg/kg/injection, schedule: Q01DX009 (ip), vehicle: other) was 90 % of control.

For `CCOCc1cn(CCCc2ccccc2)c(=O)[nH]c1=O`, the T/C (dose: 12.5 mg/kg/injection, schedule: Q04DX002 (ip), vehicle: Klucel (hydroxypropylcellulose) (HPC)) was 106 % of control, the T/C (dose: 25.0 mg/kg/injection, schedule: Q04DX002 (ip), vehicle: Klucel (hydroxypropylcellulose) (HPC)) was 102 % of control and the T/C (dose: 50.0 mg/kg/injection, schedule: Q04DX002 (ip), vehicle: Klucel (hydroxypropylcellulose) (HPC)) was 106 % of control.

For `O=C(CC(O)(C(F)(F)F)C(F)(F)F)c1ccc(Cl)c([N+](=O)[O-])c1`, the T/C (dose: 75.0 mg/kg/injection, schedule: Q01DX009 (ip), vehicle: Klucel (hydroxypropylcellulose) (HPC)) was 102 % of control and the T/C (dose: 150.0 mg/kg/injection, schedule: Q01DX009 (ip), vehicle: Klucel (hydroxypropylcellulose) (HPC)) was 100 % of control.

With `c1ccc2c(c1)NC(OC1CCCCC1)S2` (centres undefined) the T/C (dose: 100.0 mg/kg/injection, schedule: Q04DX002 (ip), vehicle: saline with Tween-80) was 101 % of control, the T/C (dose: 200.0 mg/kg/injection, schedule: Q04DX002 (ip), vehicle: saline with Tween-80) was 90 % of control and the T/C (dose: 400.0 mg/kg/injection, schedule: Q04DX002 (ip), vehicle: saline with Tween-80) was 90 % of control.

In the case of `C/C=C\C(=O)OC.[W]`, the T/C [1] is reported as 97 % of control, the T/C [2] is reported as 105 % of control and the T/C [3] is reported as 108 % of control.

For `Fc1cccc(CSc2ncnc3nc[nH]c23)c1`, the T/C (dose: 12.5 mg/kg/injection, schedule: Q01DX009 (ip), vehicle: saline) was 104 % of control, the T/C (dose: 25.0 mg/kg/injection, schedule: Q01DX009 (ip), vehicle: saline) was 119 % of control and the T/C [1] was 120 % of control. For the same compound, the T/C (dose: 175.0 mg/kg/injection, schedule: Q01DX001 (ip), vehicle: saline) was 105 % of control and 116 % of control, the T/C (dose: 265.0 mg/kg/injection, schedule: Q01DX001 (ip), vehicle: saline) was 115 % of control and the T/C [4] was 119 % of control.

For `CCOP(=S)(OCC)N1c2ccccc2Sc2ccccc21`, the T/C (dose: 100.0 mg/kg/injection, schedule: Q04DX003 (ip), vehicle: saline with Tween-80) was 92 % of control and the T/C (dose: 200.0 mg/kg/injection, schedule: Q04DX003 (ip), vehicle: saline with Tween-80) was 91 % of control.

With `Clc1cc2c(cc1Cl)OB(c1ccccc1)O2` the T/C (dose: 100.0 mg/kg/injection, schedule: Q04DX003 (ip), vehicle: alcohol) was 113 % of control and the T/C (dose: 200.0 mg/kg/injection, schedule: Q04DX003 (ip), vehicle: alcohol) was 106 % of control.

`NC(=Nc1ccccc1)C(N)=Nc1ccccc1` was tested, and the T/C (dose: 100.0 mg/kg/injection, schedule: Q04DX002 (ip), vehicle: gum acacia) was 107 % of control, the T/C (dose: 200.0 mg/kg/injection, schedule: Q04DX002 (ip), vehicle: gum acacia) was 96 % of control and the T/C (dose: 400.0 mg/kg/injection, schedule: Q04DX002 (ip), vehicle: gum acacia) was 93 % of control.

`CCC(Cl)COP(=O)(CC(Cl)CC)OC(C(C)C)P(=O)(OCC(Cl)CC)OCC(Cl)CC` (centres undefined) was tested, and the T/C (dose: 100.0 mg/kg/injection, schedule: Q01DX001 (ip), vehicle: Klucel (hydroxypropylcellulose) (HPC)) was 108 % of control, the T/C (dose: 200.0 mg/kg/injection, schedule: Q01DX001 (ip), vehicle: Klucel (hydroxypropylcellulose) (HPC)) was 101 % of control and the T/C (dose: 400.0 mg/kg/injection, schedule: Q01DX001 (ip), vehicle: Klucel (hydroxypropylcellulose) (HPC)) was 101 % of control.

With `CC(=O)CC(=O)Nc1ccc(Cc2ccc(NC(=O)CC(C)=O)c(C)c2)cc1C` the T/C (dose: 100.0 mg/kg/injection, schedule: Q01DX001 (ip), vehicle: saline) was 88 % of control, the T/C (dose: 200.0 mg/kg/injection, schedule: Q01DX001 (ip), vehicle: saline) was 94 % of control and the T/C [4] was 94 % of control.

With `C=C1CC2(OC1=O)C(=O)N(C)c1ccccc12` (centres undefined) the T/C (dose: 25.0 mg/kg/injection, schedule: Q04DX002 (ip), vehicle: gum acacia) was 101 % of control and the T/C (dose: 50.0 mg/kg/injection, schedule: Q04DX002 (ip), vehicle: gum acacia) was 97 % of control.

With `O=C1c2ccccc2C(=O)N1C1CCCCCCC1` the T/C (dose: 100.0 mg/kg/injection, schedule: Q04DX002 (ip), vehicle: Klucel (hydroxypropylcellulose) (HPC)) was 94 % of control, the T/C (dose: 200.0 mg/kg/injection, schedule: Q04DX002 (ip), vehicle: Klucel (hydroxypropylcellulose) (HPC)) was 100 % of control and the T/C (dose: 400.0 mg/kg/injection, schedule: Q04DX002 (ip), vehicle: Klucel (hydroxypropylcellulose) (HPC)) was 97 % of control.

In the case of `CC12C=CC(O1)C1C(=O)OC(=O)C12` (centres undefined), the T/C [1] is reported as 91 % of control, the T/C (dose: 75.0 mg/kg/injection, schedule: Q01DX001 (ip), vehicle: other) is reported as 96 % of control and the T/C [2] is reported as 100 % of control. For the same compound, the T/C (dose: 150.0 mg/kg/injection, schedule: Q01DX001 (ip), vehicle: other) was 98 % of control and the T/C [3] was 88 % of control.

For `c1ccc2ncccc2c1`, the T/C (dose: 100.0 mg/kg/injection, schedule: Q04DX003 (ip), vehicle: Klucel (hydroxypropylcellulose) (HPC)) was 101 % of control and the T/C (dose: 200.0 mg/kg/injection, schedule: Q04DX003 (ip), vehicle: Klucel (hydroxypropylcellulose) (HPC)) was 95 % of control.

In the case of `c1ccc(Oc2ccc(-c3ccc(Oc4ccccc4)cc3)cc2)cc1`, the T/C (dose: 100.0 mg/kg/injection, schedule: Q01DX009 (ip), vehicle: saline with Tween-80) is reported as 91 % of control and the T/C (dose: 400.0 mg/kg/injection, schedule: Q01DX009 (ip), vehicle: saline with Tween-80) is reported as 91 % of control.
